Data taken from ChEMBL document CHEMBL6103546, “TRPM8 and TRPA1 ideal targets for treating cold-induced pain” (Eur J Med Chem, 2025).

How the values were obtained:
[1] = molecular target: T1, Transient receptor potential cation channel subfamily A member 1 (Homo sapiens, UniProt O75762); assay: Antagonist activity at TRPA1 (unknown origin) transfected in HEK293F cells assessed as reduction in intracellular Ca2+ by fluorescence based assay; format: cell-based
[2] = molecular target: T1, Transient receptor potential cation channel subfamily A member 1; assay: […] at human TRPA1 expressed in HEK293T cells assessed as inhibition of AITC-induced current by whole cell patch clamp analysis; format: cell-based
[3] = molecular target: T1, Transient receptor potential cation channel subfamily A member 1; assay: Antagonist activity at TRPA1 (unknown origin) expressed in HEK293 cells assessed as inhibition of AITC-induced intracellular Ca2+ flux by fluorescence dye based assay; format: cell-based
[4] = molecular target: T1, Transient receptor potential cation channel subfamily A member 1; assay: Antagonist activity at human TRPA1 expressed in CHO cells assessed as inhibition of AITC-induced intracellular Ca2+ flux by fluorescence dye based assay; format: cell-based
[5] = molecular target: T1, Transient receptor potential cation channel subfamily A member 1; assay: Antagonist activity at recombinant TRPA1 (unknown origin) expressed in T-REx-293 cells assessed as inhibition of AITC-induced intracellular Ca2+ flux by patch clamp assay; format: cell-based
[6] = molecular target: T2, Transient receptor potential cation channel subfamily M member 8 (Homo sapiens, UniProt Q7Z2W7); assay: Antagonist activity at human recombinant TRPM8 stably transfected in HEK293 cells assessed as inhibition of intracellular Ca2+ flux incubated for 60 mins by Fluo-4 dye based fluorescence assay; format: cell-based
[7] = molecular target: T2, Transient receptor potential cation channel subfamily M member 8; assay: Antagonist activity at TRPM8 (unknown origin)
[8] = molecular target: T2, Transient receptor potential cation channel subfamily M member 8; assay: Antagonist activity at human TRPM8 expressed in HEK293 cells; format: cell-based
[9] = molecular target: Transient receptor potential cation channel subfamily M member 8 (Rattus norvegicus, UniProt Q8R455); assay: Antagonist activity at rat TRPM8 transfected in HEK293T cells assessed as reduction in intracellular Ca2+ level Fluo-4 dye based fluorescence assay; format: cell-based
[10] = molecular target: T2, Transient receptor potential cation channel subfamily M member 8; assay: Antagonist activity at human TRPM8 transfected in HEK293T cells assessed as inhibition of intracellular Ca2+ level by Fluo-4 dye based fluorescence assay; format: cell-based
[11] = molecular target: T2, Transient receptor potential cation channel subfamily M member 8; assay: Agonist activity at TRPM8 (unknown origin)
[12] = molecular target: T2, Transient receptor potential cation channel subfamily M member 8; assay: Antagonist activity at TRPM8 (unknown origin) in HEK293T cells; format: cell-based

T2 sequence (Q7Z2W7 whole entry): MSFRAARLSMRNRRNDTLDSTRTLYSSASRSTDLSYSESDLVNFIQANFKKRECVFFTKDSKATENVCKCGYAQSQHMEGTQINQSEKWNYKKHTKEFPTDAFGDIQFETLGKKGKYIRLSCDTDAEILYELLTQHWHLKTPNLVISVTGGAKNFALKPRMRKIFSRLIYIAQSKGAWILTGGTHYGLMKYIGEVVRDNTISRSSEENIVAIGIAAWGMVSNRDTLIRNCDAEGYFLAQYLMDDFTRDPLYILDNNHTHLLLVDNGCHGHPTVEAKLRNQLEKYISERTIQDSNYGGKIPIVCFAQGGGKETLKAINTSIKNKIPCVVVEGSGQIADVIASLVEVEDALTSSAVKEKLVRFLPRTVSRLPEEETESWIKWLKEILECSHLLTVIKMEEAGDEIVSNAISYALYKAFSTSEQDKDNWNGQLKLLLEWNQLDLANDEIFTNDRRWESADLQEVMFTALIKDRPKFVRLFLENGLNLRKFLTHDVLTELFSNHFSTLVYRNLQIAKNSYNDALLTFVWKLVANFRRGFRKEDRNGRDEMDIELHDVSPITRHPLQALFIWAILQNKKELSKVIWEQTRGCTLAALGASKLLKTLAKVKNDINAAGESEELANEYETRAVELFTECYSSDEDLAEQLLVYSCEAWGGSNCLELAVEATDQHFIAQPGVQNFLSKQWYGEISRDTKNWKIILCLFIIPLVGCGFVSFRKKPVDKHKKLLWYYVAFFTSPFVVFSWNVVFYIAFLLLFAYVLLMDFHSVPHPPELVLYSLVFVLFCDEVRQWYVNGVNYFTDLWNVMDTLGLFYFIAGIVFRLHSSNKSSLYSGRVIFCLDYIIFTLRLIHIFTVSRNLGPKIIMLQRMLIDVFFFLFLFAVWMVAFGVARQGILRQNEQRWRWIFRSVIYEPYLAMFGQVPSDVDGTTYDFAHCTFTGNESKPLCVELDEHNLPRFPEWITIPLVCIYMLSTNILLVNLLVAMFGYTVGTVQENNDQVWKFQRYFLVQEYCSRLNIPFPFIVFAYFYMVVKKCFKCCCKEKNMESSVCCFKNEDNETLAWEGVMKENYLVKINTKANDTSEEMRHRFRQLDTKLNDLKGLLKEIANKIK
T1 sequence (O75762 whole entry): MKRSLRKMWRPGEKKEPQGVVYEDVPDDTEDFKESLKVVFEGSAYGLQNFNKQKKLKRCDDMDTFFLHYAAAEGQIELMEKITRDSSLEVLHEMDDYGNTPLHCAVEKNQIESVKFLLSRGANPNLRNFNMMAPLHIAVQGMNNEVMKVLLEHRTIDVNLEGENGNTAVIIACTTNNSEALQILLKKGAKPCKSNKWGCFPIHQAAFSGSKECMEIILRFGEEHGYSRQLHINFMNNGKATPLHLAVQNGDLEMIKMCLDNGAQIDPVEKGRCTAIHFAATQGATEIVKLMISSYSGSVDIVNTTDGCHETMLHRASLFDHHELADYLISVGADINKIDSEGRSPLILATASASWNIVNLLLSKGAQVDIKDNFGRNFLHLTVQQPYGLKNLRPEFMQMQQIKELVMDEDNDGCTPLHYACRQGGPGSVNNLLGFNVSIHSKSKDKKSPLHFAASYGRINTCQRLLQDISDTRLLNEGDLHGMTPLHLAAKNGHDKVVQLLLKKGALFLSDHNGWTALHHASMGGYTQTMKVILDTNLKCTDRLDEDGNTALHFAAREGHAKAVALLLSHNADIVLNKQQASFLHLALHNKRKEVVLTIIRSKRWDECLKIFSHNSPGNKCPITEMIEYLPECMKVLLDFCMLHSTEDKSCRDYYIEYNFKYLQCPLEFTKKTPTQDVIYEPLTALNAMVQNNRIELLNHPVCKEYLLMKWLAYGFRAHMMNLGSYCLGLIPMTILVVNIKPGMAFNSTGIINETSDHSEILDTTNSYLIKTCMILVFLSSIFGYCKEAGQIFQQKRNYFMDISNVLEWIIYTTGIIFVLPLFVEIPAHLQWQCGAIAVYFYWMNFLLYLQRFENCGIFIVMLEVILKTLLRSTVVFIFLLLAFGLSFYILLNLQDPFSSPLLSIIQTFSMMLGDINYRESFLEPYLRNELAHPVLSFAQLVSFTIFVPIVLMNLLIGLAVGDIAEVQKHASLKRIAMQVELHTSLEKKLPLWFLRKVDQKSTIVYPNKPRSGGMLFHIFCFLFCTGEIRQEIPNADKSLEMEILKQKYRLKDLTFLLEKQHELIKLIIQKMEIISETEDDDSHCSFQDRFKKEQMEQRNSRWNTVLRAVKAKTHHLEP
Sequence of Transient receptor potential cation channel subfamily M member 8 (Rattus norvegicus, UniProt Q8R455) (Q8R455 whole entry): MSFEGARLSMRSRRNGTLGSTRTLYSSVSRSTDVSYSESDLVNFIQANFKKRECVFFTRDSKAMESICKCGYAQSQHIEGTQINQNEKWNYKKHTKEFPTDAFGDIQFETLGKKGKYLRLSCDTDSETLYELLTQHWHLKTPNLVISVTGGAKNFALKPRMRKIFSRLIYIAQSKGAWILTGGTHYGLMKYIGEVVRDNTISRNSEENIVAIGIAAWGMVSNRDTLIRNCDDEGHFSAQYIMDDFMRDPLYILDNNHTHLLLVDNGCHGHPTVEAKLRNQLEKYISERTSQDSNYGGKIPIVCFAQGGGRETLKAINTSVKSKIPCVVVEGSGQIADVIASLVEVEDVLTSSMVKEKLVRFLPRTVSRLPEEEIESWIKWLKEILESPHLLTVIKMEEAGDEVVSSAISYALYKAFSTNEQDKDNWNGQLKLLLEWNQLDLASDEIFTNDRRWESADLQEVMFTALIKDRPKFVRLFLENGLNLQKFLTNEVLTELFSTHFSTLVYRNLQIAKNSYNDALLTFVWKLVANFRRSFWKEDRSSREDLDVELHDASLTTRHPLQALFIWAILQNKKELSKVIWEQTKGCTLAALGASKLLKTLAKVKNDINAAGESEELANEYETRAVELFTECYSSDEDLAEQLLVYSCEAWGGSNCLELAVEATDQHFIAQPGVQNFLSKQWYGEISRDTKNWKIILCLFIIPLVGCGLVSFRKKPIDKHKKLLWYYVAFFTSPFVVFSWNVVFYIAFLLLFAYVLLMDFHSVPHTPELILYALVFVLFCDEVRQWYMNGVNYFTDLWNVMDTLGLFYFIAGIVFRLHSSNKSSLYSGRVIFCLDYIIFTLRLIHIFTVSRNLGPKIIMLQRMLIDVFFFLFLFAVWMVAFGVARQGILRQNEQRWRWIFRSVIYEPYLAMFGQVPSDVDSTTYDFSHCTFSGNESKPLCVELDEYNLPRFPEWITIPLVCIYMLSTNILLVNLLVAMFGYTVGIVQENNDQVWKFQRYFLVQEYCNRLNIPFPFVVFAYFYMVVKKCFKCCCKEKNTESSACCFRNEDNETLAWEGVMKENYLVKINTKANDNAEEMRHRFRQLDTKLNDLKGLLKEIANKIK

For `COc1ccc(OC)c(NC(=O)c2nnn(Cc3ccc(Br)cc3F)c2N)c1`, the EC50 [1] was 0.045 µM.
`C[n+]1cc2c3c(ccc2c2ccc4cc5c(cc4c21)OCO5)OCO3` showed an EC50 [2] of 0.04 µM.
In the case of `C[C@@H](N)[C@@H](O)CCCCCCCCCCCCCCCCCCCCCCCC[C@H](O)[C@@H](C)N`, the EC50 [3] is reported as 2.6 µM.
`C[C@H]1[C@H](F)C[C@@H](C(=O)NCc2cc(-c3cnc(C(F)(F)F)nc3)ncc2C(F)(F)F)N1S(=O)(=O)c1ccc(F)cc1` was tested, and the IC50 [4] was 0.0017 µM.
`CCN(c1cccc(C)c1)S(=O)(=O)c1nnc(NC(=O)c2ccccc2)s1` was tested, and the IC50 [5] was 0.13 µM.
`C[C@@H]1C(=O)N(C[C@@H](Cc2ccccc2)N(Cc2ccccc2)Cc2ccccc2)[C@]1(Cc1ccccc1)C(=O)OCc1ccccc1` gave an IC50 [6] of 0.3 µM and an IC50 [7] of 0.3 µM.
With `C[C@H]1C(=O)N(C[C@@H](Cc2ccccc2)N(Cc2ccccc2)Cc2ccccc2)[C@@]1(Cc1ccccc1)C(=O)OCc1ccccc1` the IC50 [8] was 0.05 µM, the IC50 [6] was 0.02 µM and the IC50 [7] was 0.02 µM.
Work on `C[C@H]1C(=O)N(C[C@H](Cc2ccccc2)N(Cc2ccccc2)Cc2ccccc2)[C@@]1(Cc1ccccc1)C(=O)OCc1ccccc1` yielded an IC50 [7] of 0.7 µM.
For `O=C(N[C@H](Cn1nccn1)C(F)(F)CO)c1cccc(F)c1-c1cc(-c2ccc(F)cc2)[nH]n1`, the IC50 [9] was 0.0224 µM and the IC50 [10] was 0.0253 µM.
With `C[C@@H]1C(=O)N(C[C@H](Cc2ccccc2)N(Cc2ccccc2)Cc2ccccc2)[C@]1(Cc1ccccc1)C(=O)OCc1ccccc1` the IC50 [7] was 3.1 µM.
In the case of `O=C1NC(c2cccc([N+](=O)[O-])c2)=CCN1c1ccccc1O` [ICILLIN], the EC50 [11] is reported as 0.005 µM.
Molecule `c1cc2c(cc1[C@H]1OC[C@H]3[C@@H]1CO[C@@H]3c1ccc3c(c1)OCO3)OCO2` [SESAMIN] has an IC50 [12] of 9.78 µM.
